Data on eight molecules can be found in ChEMBL document CHEMBL1201862, “PubChem BioAssay data set” (2004).

Some test systems named below: UACC-62; MOLT-4; IGROV-1; SF-295; NCI-H522; ACHN; MDA-N; NCI-H460; MDA-MB-435; U-251; HCT-116; SW-620; NCI-H23; M14; EKVX; CCRF-CEM; HCC 2998; RPMI-8226; MCF7; COLO 205.
Common to all, as to test: growth of human tumour cells (NCI), 48 h

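Compound exposure: 48 hours, 5 concentrations, 96-well plates. GI50 = concentration required for 50% inhibition of growth.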 Calls of active or inactive are those of the source. Cut-off read from the data, not from the text of the source: active = GI50 up to about 1.1 µM and inactive = higher.

As to `CC(CCC(=O)O)(c1ccc(O)cc1)c1ccc(O)cc1`, the GI50 in the assay with UACC-62, in the assay with MOLT-4, with IGROV-1, in the assay on SF-295, in the assay on NCI-H522 and with ACHN was > 100 µM (inactive) each time. The GI50 in the assay with MDA-N, in the assay with NCI-H460, in the assay with MDA-MB-435, with U-251, with HCT-116 and in the assay with SW-620 was > 100 µM (inactive) in each case. The GI50 with NCI-H23, with M14 and in the assay on EKVX was > 100 µM (inactive) in each case.

For `COCc1nc(N)nc(N2N=C(C)CC2(C)C)n1`, the GI50 with UACC-62, in the assay on MOLT-4, with IGROV-1, with SF-295, in the assay with CCRF-CEM and in the assay on NCI-H522 was > 100 µM (inactive) each time. The GI50 in the assay on ACHN, in the assay with HCC 2998, in the assay with NCI-H460, with RPMI-8226, in the assay with MDA-MB-435 and in the assay on MCF7 was > 100 µM (inactive) throughout. Besides, the GI50 in the assay on U-251, in the assay with HCT-116, in the assay on SW-620, with COLO 205, in the assay with NCI-H23 and in the assay with M14 was > 100 µM (inactive) each time. In addition, the GI50 in the assay on EKVX is > 100 µM (inactive).

As for `COc1cc(/C=N/n2c(C)n[nH]c2=O)cc(OC)c1OC`, the GI50 is 63.1 µM (inactive) with UACC-62; > 100 µM (inactive) with MOLT-4; > 100 µM (inactive) in the assay with SF-295; 89.5 µM (inactive) in the assay on CCRF-CEM; > 100 µM (inactive) in the assay on ACHN; > 100 µM (inactive) in the assay on MDA-N. Moreover, the GI50 in the assay with HCC 2998 is > 100 µM (inactive); in the assay on NCI-H460 it was > 100 µM (inactive); in the assay with MDA-MB-435 it was 62.5 µM (inactive); with MCF7, > 100 µM (inactive); in the assay with U-251, > 100 µM (inactive); with HCT-116 it was > 100 µM (inactive). The GI50 was > 100 µM (inactive) in the assay on SW-620; > 100 µM (inactive) in the assay with COLO 205; > 100 µM (inactive) in the assay with NCI-H23; > 100 µM (inactive) in the assay with M14; 32.6 µM (inactive) in the assay with EKVX.

`CCOC(=O)C(C)(Cc1ccc(O)cn1)NC(=O)c1ccccc1` (stereo not drawn): the GI50 in the assay on UACC-62, in the assay with MOLT-4, in the assay on IGROV-1, in the assay with SF-295, in the assay with CCRF-CEM and with NCI-H522 was > 100 µM (inactive) throughout. Also, the GI50 in the assay with ACHN, with MDA-N, in the assay with HCC 2998, in the assay on NCI-H460, with RPMI-8226 and in the assay with MDA-MB-435 was > 100 µM (inactive) throughout. Further, the GI50 with U-251, in the assay with HCT-116, in the assay with SW-620, with COLO 205, in the assay on NCI-H23 and in the assay on M14 was > 100 µM (inactive) throughout. For the same molecule, the GI50 with EKVX was > 100 µM (inactive).

Consider `O=c1n(N=[S+]([O-])(c2ccccc2)c2ccccc2)c(=O)n2n1C1C=CC2CC1`, for which the GI50 in the assay with UACC-62, with MOLT-4, in the assay on IGROV-1, in the assay on SF-295, in the assay with CCRF-CEM and in the assay with ACHN was > 100 µM (inactive) each time. For the same molecule, the GI50 in the assay with MDA-N, in the assay with NCI-H460, in the assay on RPMI-8226, with MDA-MB-435, in the assay with MCF7 and with U-251 was > 100 µM (inactive) in each case. Moreover, the GI50 in the assay with HCT-116, in the assay on SW-620, with COLO 205, in the assay with NCI-H23, in the assay on M14 and with EKVX was > 100 µM (inactive) each time.

For `CCSC(=O)/C=C1\CN(C(=O)OC(C)(C)C)C1C(=O)OC(C)(C)C` (stereo not drawn), the GI50 in the assay on UACC-62 was 3.2 µM (inactive); with MOLT-4 it was 1.71 µM (inactive); in the assay on IGROV-1, 4.28 µM (inactive); in the assay on SF-295, 12.1 µM (inactive); in the assay with CCRF-CEM, 1.27 µM (inactive); in the assay on NCI-H522, 2.49 µM (inactive). Moreover, the GI50 in the assay with ACHN was 3.63 µM (inactive); with HCC 2998, 5.38 µM (inactive); with NCI-H460, 7.14 µM (inactive); in the assay on RPMI-8226, 1.87 µM (inactive); in the assay on MDA-MB-435 it was 2.74 µM (inactive); in the assay on MCF7 it was 2.38 µM (inactive). Also, the GI50 was 6.19 µM (inactive) in the assay with U-251; 1.55 µM (inactive) with HCT-116; 2.07 µM (inactive) in the assay with SW-620; 2.02 µM (inactive) in the assay on COLO 205; 2.6 µM (inactive) in the assay with NCI-H23; 1.77 µM (inactive) in the assay with M14. For the same molecule, the GI50 in the assay on EKVX was 10.5 µM (inactive).

As for `COc1cc(Cc2cc3c(c(C(=O)O)c2Br)OCO3)cc(OC)c1OC`, the GI50 with UACC-62 was 33.5 µM (inactive); in the assay on MOLT-4 it was 56.8 µM (inactive); with IGROV-1, > 100 µM (inactive); in the assay on SF-295, > 100 µM (inactive); with CCRF-CEM, 34.6 µM (inactive); with ACHN, > 100 µM (inactive). Moreover, the GI50 with MDA-N is 23.8 µM (inactive); in the assay with HCC 2998, > 100 µM (inactive); with NCI-H460 it was > 100 µM (inactive); in the assay with MDA-MB-435 it was 49.9 µM (inactive); with MCF7, 62.1 µM (inactive); in the assay with U-251, > 100 µM (inactive). Also, the GI50 in the assay on HCT-116 was 37 µM (inactive); in the assay on SW-620, 69.2 µM (inactive); in the assay on COLO 205, > 100 µM (inactive); with NCI-H23, > 100 µM (inactive); with M14 it was 70.8 µM (inactive); with EKVX, > 100 µM (inactive).

`C=C1C(=O)C23C(O)CC4C(C)(C)CCC(O)C4(C)C2CC(OC(C)=O)C1[C@H]3O` (stereo partly drawn): the GI50 with MOLT-4 was 1.28 µM (inactive); with IGROV-1, 4.79 µM (inactive); with SF-295, 8.05 µM (inactive); with CCRF-CEM it was 0.442 µM (active); in the assay with NCI-H522, 0.123 µM (active); in the assay with ACHN, 4.12 µM (inactive). Moreover, the GI50 in the assay with MDA-N is 7.87 µM (inactive); in the assay on HCC 2998, 4.06 µM (inactive); with NCI-H460, 4.25 µM (inactive); with RPMI-8226 it was 0.869 µM (active); in the assay on MDA-MB-435, 7.96 µM (inactive); in the assay on U-251 it was 8.81 µM (inactive). The GI50 is 2 µM (inactive) in the assay on HCT-116; 1.01 µM (active) in the assay on SW-620; 1.98 µM (inactive) in the assay on COLO 205; 2.44 µM (inactive) in the assay with NCI-H23; 2.82 µM (inactive) with M14; 4.88 µM (inactive) with EKVX.
